Data published in patent US5043332A, “Novel 11β-substituted -19-nor-steriods” (priority 1981, dated 1991).

Legend:
[1] = biological target: T1, Mineralcorticoidal receptor of kidneys of the rat (Rattus norvegicus, UniProt P22199); test: Mineralcorticoidal receptor binding (displacement of tritiated aldosterone)
T1 construct: from tissue; host or cells: rat kidney, 105,000 g supernatant (adrenalectomized male Sprague-Dawley rats)
T1 sequence (P22199 1-981): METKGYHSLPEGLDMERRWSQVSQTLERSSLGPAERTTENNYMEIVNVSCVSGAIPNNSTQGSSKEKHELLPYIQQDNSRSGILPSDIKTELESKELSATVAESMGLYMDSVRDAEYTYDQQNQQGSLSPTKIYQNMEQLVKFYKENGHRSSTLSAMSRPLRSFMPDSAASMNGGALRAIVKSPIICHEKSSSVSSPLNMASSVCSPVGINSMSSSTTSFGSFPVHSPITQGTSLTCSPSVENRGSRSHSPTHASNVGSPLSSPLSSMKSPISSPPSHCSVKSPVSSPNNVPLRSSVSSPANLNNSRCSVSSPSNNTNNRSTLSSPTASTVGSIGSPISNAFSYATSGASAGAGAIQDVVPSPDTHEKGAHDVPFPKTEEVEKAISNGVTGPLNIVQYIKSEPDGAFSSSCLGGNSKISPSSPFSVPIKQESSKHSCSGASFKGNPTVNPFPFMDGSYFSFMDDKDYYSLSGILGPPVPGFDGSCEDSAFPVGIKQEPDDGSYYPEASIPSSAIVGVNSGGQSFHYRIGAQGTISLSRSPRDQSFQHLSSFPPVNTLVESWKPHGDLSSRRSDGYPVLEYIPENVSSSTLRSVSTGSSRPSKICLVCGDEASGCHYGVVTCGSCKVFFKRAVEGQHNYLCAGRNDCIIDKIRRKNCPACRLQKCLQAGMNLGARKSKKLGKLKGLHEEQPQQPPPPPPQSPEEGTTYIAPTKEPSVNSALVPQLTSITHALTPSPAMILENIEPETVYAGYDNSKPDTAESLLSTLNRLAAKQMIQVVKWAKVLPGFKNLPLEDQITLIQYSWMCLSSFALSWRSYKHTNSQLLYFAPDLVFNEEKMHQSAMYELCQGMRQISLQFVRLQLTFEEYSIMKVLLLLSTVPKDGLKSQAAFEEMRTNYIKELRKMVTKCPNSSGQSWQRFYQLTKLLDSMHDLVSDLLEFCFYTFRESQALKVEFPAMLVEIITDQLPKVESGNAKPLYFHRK
Procedure: A. Mineralcorticoidal receptor of kidneys of the rat
Male Sprague-Dawley EOPS rats weighing 140 to 160 g surrenalectomized 4 to 8 days previously were killed and their kidneys were perfused in situ with 50 ml of a buffer (10 mM of Tris 0.25M of Saccharose and sufficient hydrochloric acid for a pH of 7.4). The kidneys were then removed, decapsulated and homogenized at 0° C. with a polytetrafluoroethylene-glass Potter (1 g of tissue per 3 ml of buffer). The homogenate was centrifuged for 10 minutes at 800 g at 9° C.
After elimination of the fixation of tritiated aldosterone with glucocorticoid receptor, 21-methyl-Δ^1,4,6 -pregnatriene-20-yne-11β,17β-diol-3-one fixed only with the glucocorticoid receptor was added to the supernatant at a final concentration of 10^-6 M. The suprenatant was ultracentrifuged at 105,000 g for 60 minutes and 0° C. and aliquoits of the resulting surnageant were incubated at 0° C. with a constant concentration (T) of tritiated aldosterone in the presence of increasing concentrations (0-2500×10^-9 M) of cold aldosterone or the cold test product. After a time (t) of incubation, the concentration of tied tritiated aldosterone (B) was measured by the technique of adsoprtion on carbon dextran.
The calculation of the relative affinity of […] (ARL) was identical for all of the above receptor tests. One traced the following two curves: the percentage of tied tritiated hormone B/T as a function of the logarithm of the cold hormone concentration and B/T as a function of the logarithm of the concentration of the cold test product. One determined the line of the equation. [formula]
The intersection of the I50 line and the curves permits one to determine the concentrations of the cold hormone of the reference (CH) and the cold test compound (CX) which inhibit by 50% the tieing of tritiated hormone with the receptor. The relative affinity of tieing (ARL) of the test product was determined by the equation: [formula]

[2] = biological target: T2, Androgen receptor of prostate of rats (Rattus norvegicus, UniProt P15207); test: Androgen receptor binding (displacement of tritiated product P)
T2 construct: The prostates were removed, weighed and homogenized at 0° C; from tissue; host or cells: rat prostate, 105,000 g supernatant (castrated male Sprague-Dawley rats)
T2 sequence (P15207 1-902): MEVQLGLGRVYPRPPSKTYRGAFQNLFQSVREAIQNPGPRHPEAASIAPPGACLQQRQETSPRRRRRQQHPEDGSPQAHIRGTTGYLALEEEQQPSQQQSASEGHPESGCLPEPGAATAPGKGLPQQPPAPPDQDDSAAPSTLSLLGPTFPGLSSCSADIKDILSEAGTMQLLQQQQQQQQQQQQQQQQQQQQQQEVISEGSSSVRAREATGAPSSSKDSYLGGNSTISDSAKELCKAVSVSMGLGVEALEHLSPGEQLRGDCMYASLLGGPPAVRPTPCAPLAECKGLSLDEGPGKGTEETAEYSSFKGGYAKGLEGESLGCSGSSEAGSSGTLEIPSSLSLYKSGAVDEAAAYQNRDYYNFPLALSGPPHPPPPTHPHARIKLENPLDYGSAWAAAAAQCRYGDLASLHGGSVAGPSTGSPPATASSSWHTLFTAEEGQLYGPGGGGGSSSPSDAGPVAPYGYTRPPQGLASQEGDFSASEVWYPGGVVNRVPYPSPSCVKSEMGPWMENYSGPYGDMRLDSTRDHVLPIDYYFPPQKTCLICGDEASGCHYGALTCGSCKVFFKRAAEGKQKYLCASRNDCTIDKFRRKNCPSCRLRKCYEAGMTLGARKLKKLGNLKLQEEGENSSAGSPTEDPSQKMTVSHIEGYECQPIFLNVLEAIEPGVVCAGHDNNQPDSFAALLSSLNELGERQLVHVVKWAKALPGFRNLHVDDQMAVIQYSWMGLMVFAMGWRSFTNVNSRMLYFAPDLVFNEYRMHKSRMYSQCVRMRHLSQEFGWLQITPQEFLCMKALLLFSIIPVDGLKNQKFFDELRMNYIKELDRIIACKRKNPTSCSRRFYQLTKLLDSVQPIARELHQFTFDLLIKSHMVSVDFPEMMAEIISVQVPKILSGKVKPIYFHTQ
How it was run: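 Male Sprague-Dawley EPOS rats of 160 to 200 g were castrated and killed 24 hours later. Prostates were homogenized at 0° C. in Tris 10 mM, 0.25M saccharose, HCl buffer at pH 7.4 (1 g tissue per 5 ml) and ultracentrifuged at 105,000 g. Cytosol was incubated with tritiated product P plus increasing cold competitor (0-1,000×10^-9 M). Bound tritium was measured by carbon-dextran adsorption. ARL was derived from the 50% inhibitory concentrations of reference and test compound.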

[3] = second table, incubation 24 H at 0° C.

relative affinity of tieing (ARL), Mineralocorticoid ([1]; incubation 1 H at 0° C.)	relative affinity of tieing (ARL), Mineralocorticoid ([1]; incubation 24 H at 0° C.)	relative affinity of tieing (ARL), Androgen ([2]; incubation 1/2H at 0° C.)	relative affinity of tieing (ARL), Androgen ([2]; incubation 24 H at 0° C.)	relative affinity of tieing (ARL), Mineralocorticoid [1, 3]	relative affinity of tieing (ARL), Androgen [2, 3]	SMILES
< 0,1	< 0,1	0,7	0,5	–	–	CC#C[C@]1(O)CC[C@H]2[C@@H]3CCC4=CC(=O)[C@@H](C)CC4=C3[C@@H](c3ccc(N(C)C)cc3)C[C@@]21C [5 (2β), 2-methyl-11β-(4-dimethylaminophenyl)-17α-(prop-1-ynyl)-Δ^4,9-estradiene-17β-ol-3-one]
–	–	–	–	0,8	7,3	C#C[C@@]1(O)CC[C@H]2[C@@H]3CCC4=CC(=O)CCC4=C3[C@@H](c3ccc(N(C)C)cc3)C[C@@]21C [Example 21, 11β-[4-(N,N-dimethylamino)-phenyl]-17β-ethynyl-Δ^4,9-estradiene-17α-ol-3-one]
< 0,1	< 0,1	0,5	0,4	–	–	CC#C[C@]1(O)CC[C@H]2[C@@H]3CCC4=CC(=O)[C@H](C)CC4=C3[C@@H](c3ccc(N(C)C)cc3)C[C@@]21C [5 (2α), 2α-methyl-11β-(4-dimethylaminophenyl)-17α-(prop-1-ynyl)-Δ^4,9-estradiene-17β-ol-3-one]

SMILES	relative affinity of tieing (ARL), Mineralocorticoid ([1]; incubation 1 H at 0° C.)	relative affinity of tieing (ARL), Mineralocorticoid ([1]; incubation 24 H at 0° C.)	relative affinity of tieing (ARL), Androgen ([2]; incubation 1/2H at 0° C.)	relative affinity of tieing (ARL), Androgen ([2]; incubation 24 H at 0° C.)	relative affinity of tieing (ARL), Mineralocorticoid [1, 3]	relative affinity of tieing (ARL), Androgen [2, 3]
CC#C[C@]1(OC(C)=O)CC[C@H]2[C@@H]3CCc4cc(O)ccc4[C@H]3[C@@H](c3ccc(N(C)C)cc3)C[C@@]21C [2 (17 OAc), 11β-(4-dimethylaminophenyl)-17α-(prop-1-ynyl)-17β-acetoxy-Δ^1,3,5(10) -estratriene-3-ol]	< 0,1	< 0,1	< 0,1	< 0,1	–	–
